Where two headings read alike, the source gives them in different places.
Assays:
[1] = molecular target: T1, recombinant soluble tissue factor and recombinant human factor VIIa (TF-VIIa) (Homo sapiens, UniProt P08709); experiment: TF-VIIa Assay; assay type: biochemical
T1 construct: conversion of coagulation factor VII to VIIa by Xa; purchased American Diagnostica, Greenwich Conn; host or cells: VIIa purchased; soluble TF made in house in E. coli

Human factor Xa = Human factor Xa (Homo sapiens, UniProt P00742); experiment: Xa Assay; assay type: biochemical; parameters: purchased Enzyme Research Laboratories, South Bend Ind
Sequence of Human factor Xa (P00742 41-179 limits assumed): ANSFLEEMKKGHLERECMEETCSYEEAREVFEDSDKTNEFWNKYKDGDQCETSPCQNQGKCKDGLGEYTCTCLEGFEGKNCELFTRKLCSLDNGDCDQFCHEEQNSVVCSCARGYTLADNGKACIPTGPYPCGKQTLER
Sequence of Human factor Xa (P00742 235-488 limits assumed): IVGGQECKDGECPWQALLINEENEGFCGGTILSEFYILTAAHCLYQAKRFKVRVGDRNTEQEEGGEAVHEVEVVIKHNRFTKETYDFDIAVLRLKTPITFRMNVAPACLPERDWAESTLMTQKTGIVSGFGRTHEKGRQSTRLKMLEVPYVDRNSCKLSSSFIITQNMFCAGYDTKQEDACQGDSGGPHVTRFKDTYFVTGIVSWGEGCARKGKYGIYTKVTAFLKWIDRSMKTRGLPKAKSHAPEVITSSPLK

T1 sequence (P08709 61-212 limits assumed): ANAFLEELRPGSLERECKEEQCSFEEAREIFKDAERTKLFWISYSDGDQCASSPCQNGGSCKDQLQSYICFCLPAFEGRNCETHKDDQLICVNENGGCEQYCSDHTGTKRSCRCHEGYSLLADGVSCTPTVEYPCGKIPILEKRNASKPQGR
T1 sequence (P08709 213-466 limits assumed): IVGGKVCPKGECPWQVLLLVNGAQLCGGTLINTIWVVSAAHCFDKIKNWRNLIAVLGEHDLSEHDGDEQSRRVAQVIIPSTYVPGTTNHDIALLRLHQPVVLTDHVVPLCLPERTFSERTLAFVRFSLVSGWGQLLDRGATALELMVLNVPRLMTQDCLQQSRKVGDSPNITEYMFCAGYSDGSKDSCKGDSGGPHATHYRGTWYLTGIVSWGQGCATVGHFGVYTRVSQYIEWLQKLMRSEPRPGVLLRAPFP
T1 sequence (P13726 33-251 partner limits assumed): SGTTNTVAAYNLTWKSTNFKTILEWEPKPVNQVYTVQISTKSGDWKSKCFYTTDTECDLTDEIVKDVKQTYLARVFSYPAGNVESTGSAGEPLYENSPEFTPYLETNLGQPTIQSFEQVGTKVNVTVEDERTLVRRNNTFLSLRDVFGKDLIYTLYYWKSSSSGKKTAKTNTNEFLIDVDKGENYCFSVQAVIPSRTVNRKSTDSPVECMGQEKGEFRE

Row | Compound | % Inhibition TF-VIIa (100 µM) ([1]; inhibitor at 100 µM) | % Inhibition Factor Xa (100 µM) (Human factor Xa; inhibitor at 100 µM) | % Inhibition TF-VIIa (100 µM) [1] | % Inhibition Factor Xa (100 µM) (Human factor Xa)
1 | COc1ccc(-c2c(Cl)nc(NCCc3cccc(Cl)c3)c(=O)n2CC(=O)NCCc2ccncc2)cc1 [Example E-0035] | 4% | 0% |  | 
2 | COc1ccc(-c2c(Cl)nc(NCCc3ccc(Cl)cc3)c(=O)n2CC(=O)NCCc2ccncc2)cc1 [Example E-0036] | 0% | 0% |  | 
3 | COc1ccc(-c2c(Cl)nc(NCCc3cccnc3)c(=O)n2CC(=O)NCCc2ccncc2)cc1 [Example E-0037] | 0% | 0% |  | 
4 | COc1ccc(-c2c(Cl)nc(NCCc3ccncc3)c(=O)n2CC(=O)NCCc2ccncc2)cc1 [Example E-0038] | 0% | 0% |  | 
5 | COc1ccc(-c2c(Cl)nc(NCCN3CCOCC3)c(=O)n2CC(=O)NCCc2ccncc2)cc1 [Example E-0039] | 0% | 1% |  | 
6 | COc1ccc(-c2c(Cl)nc(NCc3ccncc3)c(=O)n2CC(=O)NCCc2ccncc2)cc1 [Example E-0040] | 0% | 0% |  | 
7 | O=C(Cn1c(-c2ccc3c(c2)OCO3)c(Cl)nc(NCc2ccccc2)c1=O)NCCc1ccncc1 [Example E-0041] | 0% | 0% |  | 
8 | O=C(Cn1c(-c2ccc3c(c2)OCO3)c(Cl)nc(NCCc2ccccc2)c1=O)NCCc1ccncc1 [Example E-0042] | 0% | 0% |  | 
9 | O=C(Cn1c(-c2ccc3c(c2)OCO3)c(Cl)nc(NCCc2cccc(Cl)c2)c1=O)NCCc1ccncc1 [Example E-0043] | 0% | 0% |  | 
10 | O=C(Cn1c(-c2ccc3c(c2)OCO3)c(Cl)nc(NCCc2ccc(Cl)cc2)c1=O)NCCc1ccncc1 [Example E-0044] | 0% | 0% |  | 
11 | O=C(Cn1c(-c2ccc3c(c2)OCO3)c(Cl)nc(NCCc2cccnc2)c1=O)NCCc1ccncc1 [Example E-0045] | 0% | 0% |  | 
12 | O=C(Cn1c(-c2ccc3c(c2)OCO3)c(Cl)nc(NCCc2ccncc2)c1=O)NCCc1ccncc1 [Example E-0046] | 0% | 0% |  | 
13 | O=C(Cn1c(-c2ccc3c(c2)OCO3)c(Cl)nc(NCCN2CCOCC2)c1=O)NCCc1ccncc1 [Example E-0047] | 0% | 0% |  | 
14 | O=C(Cn1c(-c2ccc3c(c2)OCO3)c(Cl)nc(NCc2ccncc2)c1=O)NCCc1ccncc1 [Example E-0048] | 0% | 0% |  | 
15 | O=C(Cn1c(-c2ccc(-c3ccccc3)cc2)c(Cl)nc(NCc2ccccc2)c1=O)NCCc1ccncc1 [Example E-0049] |  |  | 2% | 0%
16 | O=C(Cn1c(-c2ccc(-c3ccccc3)cc2)c(Cl)nc(NCCc2ccccc2)c1=O)NCCc1ccncc1 [Example E-0050] |  |  | 0% | 0%
17 | O=C(Cn1c(-c2ccc(-c3ccccc3)cc2)c(Cl)nc(NCCc2ccc(Cl)cc2)c1=O)NCCc1ccncc1 [Example E-0052] |  |  | 0% | 0%
18 | O=C(Cn1c(-c2ccc(-c3ccccc3)cc2)c(Cl)nc(NCCc2cccnc2)c1=O)NCCc1ccncc1 [Example E-0053] |  |  | 0% | 0%
19 | O=C(Cn1c(-c2ccc(-c3ccccc3)cc2)c(Cl)nc(NCCN2CCOCC2)c1=O)NCCc1ccncc1 [Example E-0055] |  |  | 0% | 0%
20 | O=C(Cn1c(-c2ccc(-c3ccccc3)cc2)c(Cl)nc(NCc2ccncc2)c1=O)NCCc1ccncc1 [Example E-0056] |  |  | 0% | 0%
21 | O=C(Cn1c(Cc2ccccc2)c(Cl)nc(NCc2ccccc2)c1=O)NCCc1ccncc1 [Example E-0057] | 0% | 6% |  | 
22 | O=C(Cn1c(Cc2ccccc2)c(Cl)nc(NCCc2ccccc2)c1=O)NCCc1ccncc1 [Example E-0058] | 0% | 0% |  | 
23 | O=C(Cn1c(Cc2ccccc2)c(Cl)nc(NCCc2cccc(Cl)c2)c1=O)NCCc1ccncc1 [Example E-0059] | 0% | 0% |  | 

Row | Compound | % Inhibition TF-VIIa (100 µM) ([1]; inhibitor at 100 µM) | % Inhibition Factor Xa (100 µM) (Human factor Xa; inhibitor at 100 µM) | % Inhibition TF-VIIa (100 µM) [1] | % Inhibition Factor Xa (100 µM) (Human factor Xa)
24 | O=C(Cn1c(Cc2ccccc2)c(Cl)nc(NCCc2ccc(Cl)cc2)c1=O)NCCc1ccncc1 [Example E-0060] | 0% | 0% |  | 
25 | O=C(Cn1c(Cc2ccccc2)c(Cl)nc(NCCc2cccnc2)c1=O)NCCc1ccncc1 [Example E-0061] | 0% | 0% |  | 
26 | O=C(Cn1c(Cc2ccccc2)c(Cl)nc(NCCc2ccncc2)c1=O)NCCc1ccncc1 [Example E-0062] | 0% | 0% |  | 
27 | O=C(Cn1c(Cc2ccccc2)c(Cl)nc(NCCN2CCOCC2)c1=O)NCCc1ccncc1 [Example E-0063] | 0% | 0% |  | 
28 | O=C(Cn1c(Cc2ccccc2)c(Cl)nc(NCc2ccncc2)c1=O)NCCc1ccncc1 [Example E-0064] | 0% | 0% |  | 
29 | O=C(Cn1c(CCc2ccccc2)c(Cl)nc(NCc2ccccc2)c1=O)NCCc1ccncc1 [Example E-0065] | 0% | 0% |  | 
30 | O=C(Cn1c(CCc2ccccc2)c(Cl)nc(NCCc2ccccc2)c1=O)NCCc1ccncc1 [Example E-0066] | 0% | 0% |  | 
31 | O=C(Cn1c(CCc2ccccc2)c(Cl)nc(NCCc2cccc(Cl)c2)c1=O)NCCc1ccncc1 [Example E-0067] | 0% | 0% |  | 
32 | O=C(Cn1c(CCc2ccccc2)c(Cl)nc(NCCc2ccc(Cl)cc2)c1=O)NCCc1ccncc1 [Example E-0068] | 0% | 0% |  | 
33 | O=C(Cn1c(CCc2ccccc2)c(Cl)nc(NCCc2cccnc2)c1=O)NCCc1ccncc1 [Example E-0069] | 0% | 0% |  | 
34 | O=C(Cn1c(CCc2ccccc2)c(Cl)nc(NCCc2ccncc2)c1=O)NCCc1ccncc1 [Example E-0070] | 0% | 0% |  | 
35 | O=C(Cn1c(CCc2ccccc2)c(Cl)nc(NCCN2CCOCC2)c1=O)NCCc1ccncc1 [Example E-0071] | 0% | 0% |  | 
36 | O=C(Cn1c(CCc2ccccc2)c(Cl)nc(NCc2ccncc2)c1=O)NCCc1ccncc1 [Example E-0072] | 0% | 0% |  | 
37 | O=C(Cn1c(-c2cccc(Cl)c2)c(Cl)nc(NCc2ccccc2)c1=O)NCCc1ccncc1 [Example E-0073] | 0% | 2% |  | 
38 | O=C(Cn1c(-c2cccc(Cl)c2)c(Cl)nc(NCc2ccccc2)c1=O)NCCc1cccnc1 [Example E-0074] | 0% | 0% |  | 
39 | O=C(Cn1c(-c2cccc(Cl)c2)c(Cl)nc(NCCc2ccccc2)c1=O)NCCc1ccncc1 [Example E-0076] | 0% | 1% |  | 
40 | O=C(Cn1c(-c2cccc(Cl)c2)c(Cl)nc(NCCc2ccccc2)c1=O)NCCc1cccnc1 [Example E-0077] | 0% | 3% |  | 
41 | O=C(Cn1c(-c2cccc(Cl)c2)c(Cl)nc(NCCc2cccc(Cl)c2)c1=O)NCCc1ccncc1 [Example E-0079] | 0% | 4% |  | 
42 | O=C(Cn1c(-c2cccc(Cl)c2)c(Cl)nc(NCCc2cccc(Cl)c2)c1=O)NCCc1cccnc1 [Example E-0080] | 1% | 4% |  | 
43 | O=C(Cn1c(-c2cccc(Cl)c2)c(Cl)nc(NCCc2ccc(Cl)cc2)c1=O)NCCc1ccncc1 [Example E-0082] | 4% | 4% |  | 
44 | O=C(Cn1c(-c2cccc(Cl)c2)c(Cl)nc(NCCc2ccc(Cl)cc2)c1=O)NCCc1cccnc1 [Example E-0083] | 2% | 3% |  | 
45 | O=C(Cn1c(-c2cccc(Cl)c2)c(Cl)nc(NCc2ccccc2)c1=O)NCCc1ccncc1 [Example E-0085] | 0% | 0% |  | 
46 | O=C(Cn1c(-c2cccc(Cl)c2)c(Cl)nc(NCc2ccccc2)c1=O)NCCc1cccnc1 [Example E-0086] | 0% | 4% |  | 
